The test system of one data set is TC-71 ES cells. The data set is described as follows: Cell viability IC50, TC-71. The class given is cell-based, human. The note with it: for IC50: Homo sapiens; for Fold changes in IC50: TC-71 parental cells, mean ± SD.
For data set [1], the system named is RH1 rhabdomyosarcoma cells. Briefly: Cell viability IC50, RH1. The class given is cell-based. The note with it: Homo sapiens, RH1 (RM). Here is the method: (§1) The plate was installed into the RTCA system, and the electrical impedance (represented as cell index) was measured every 10 min.
(§2) To investigate the relationship between the level of CD99 expression and drug sensitivity, the endogenous expression of CD99 was determined in a panel of 9 ES and 13 non-ES cell lines. The recombinant purified CD99-ECD protein was used to generate standard curves for immunoquantification of CD99 expression by immunoblotting (FIGS. 6B and 6C).

The next data set deals with MG63 OS cells. Briefly: Cell viability IC50, MG63. The class given is cell-based. The note with it: Homo sapiens, MG-63. Here is the method: as §1, §2
Data set [2] concerns leukemia cell lines MOLT-4 and Jurkat. The data set is described as follows: Cell viability IC50 panel, leukemia cell lines. It is filed as cell-based. The note with it: Homo sapiens. The protocol: as §1
(§3) Therefore, two leukemia cell lines, MOLT-4 and Jurkat, were included as positive controls in this experiment.

A further data set has as its system IOR/OS20 OS cells. The data set is described as follows: Cell viability IC50, IOR/OS20. The class given is cell-based. The note with it: Homo sapiens. The protocol:
as §1, §2

The test system of the next data set is TC-71 xenografts. The data set is described as follows: Orthotopic TC-71 xenograft, i.p. administration. The class given is in vivo, SCID/beige mice. The note with it: clofarabine 30 mg/kg, cladribine 20 mg/kg; for event-free survival: i.p. once daily 14 days, vs vehicle; for tumor growth: i.p. Here is the method: The antitumor activity of drugs through intraperitoneal (i.p.) administration given once daily was determined. […] The in vivo potencies of drug treatments were evaluated by event-free survival curves, where tumors that reached 1.0 cm^3 in size considered an event.

The target of data set [3] is T1, recombinant human full-length CD99 (Homo sapiens, UniProt P14209).
T1 construct: Purified recombinant human full-length CD99 produced in HEK293 cells was purchased from Origene; purchased Origene #TP304056; host or cells: HEK293
T1 sequence (P14209 23-185): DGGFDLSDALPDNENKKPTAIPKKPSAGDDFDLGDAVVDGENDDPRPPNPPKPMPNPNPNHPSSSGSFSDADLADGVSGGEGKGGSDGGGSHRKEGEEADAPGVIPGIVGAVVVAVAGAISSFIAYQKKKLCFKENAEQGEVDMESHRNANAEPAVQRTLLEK
Briefly: SPR binding kinetics, recombinant human full-length CD99 (Biacore T200). Particulars: full-length CD99 produced in HEK293 cells, immobilized by amine coupling. The protocol: The initial binding screening of the NCI/DTP chemical libraries was performed on a Biacore T200 instrument at room temperature using a neutravidin-coated CM5 chip (GE Healthcare Bio-Sciences) coupled with biotinylated CD99-ECD on one flow cell at levels of ˜3,000 response units (RU). A negative control protein, Ly6k was immobilized on another flow cell of the same chip (˜11,000 RU), and the first flow cell was left empty for reference subtraction due to nonspecific binding. Analytes were diluted in HBS—P buffer [10 mmol/L HEPES, pH 7.4, 150 mmol/L NaCl, % 0.05 (v/v) surfactant P20], and were injected individually over all flow cells. The running buffer contained appropriate concentrations of DMSO in HBS—P to match the DMSO level of the samples. Kinetic studies for antibody- or compound-CD99 interactions were performed in a Biacore T200 instrument. Purified recombinant human full-length CD99 produced in HEK293 cells was purchased from Origene (Rockville, Md.) (#TP304056). The recombinant human full-length CD99 was immobilized on a CM5 sensor chip by the amine-coupling method in sodium acetate buffer, pH 4.0 (˜10,000 RU). The first flow cell was left empty for background signal subtraction. Kinetic characterization of the interactions was done by injecting increasing concentrations of analytes as indicated over CD99-captured and control surface. KD (equilibrium dissociation constant) values were obtained using BiaEvaluation software (version 1.0) (Biacore) (GE Healthcare). All kinetic experiments were conducted in HBS—P buffer, which contained 1% (v/v) DMSO in case of compounds.
On the technique in general: In SPR one partner is held on a chip, and binding of the other changes the refractive index at the surface.

The target of data set [4] is T2, CD99 homodimers in STA-ET-7.2 ES cells (Homo sapiens, UniProt P14209).
T2 construct: STA-ET-7.2 ES cells, which express the highest level of CD99 protein among all ES cell lines; endogenous in cells; host or cells: STA-ET-7.2
The data set is described as follows: Chemical cross-linking with BS3, CD99 homodimer formation. The note with it: 5 μmol/L, 1 h, then 1 mmol/L BS3; STA-ET-7.2 cells. The class given is cell-based. Here is the method:
The cells were rinsed 3 times with ice-cold PBS, and treated with 1 mmol/L BS^3 (Thermo Scientific) in PBS for 10 min at 37° C. according to manufacturer's instructions. […] Protein samples were then prepared by lysing the cross-linked cells in a lysis buffer as described above.
To address this, in a chemical cross-linking assay, STA-ET-7.2 ES cells were preincubated with the inhibitors for 1 h at a final concentration of 5 μmol/L followed by the addition of 1 mmol/L BS^3, a membrane-impermeable chemical cross-linking agent.

The test system of a further data set is non-ES cell lines. Briefly: Cell viability IC50 panel, non-ES cell lines. It is filed as cell-based. The note with it: 48 h; highest concentration tested (10 or 30 μmol/L) used for resistant lines; unit not printed with values. The protocol: as §1, §3
The test system of the next data set is RDES ES cells. Briefly: Cell viability IC50, RDES. Particulars: Homo sapiens, RD-ES. The class given is cell-based.
In a further data set the test system is IOR/OS9 OS cells. The data set is described as follows: Cell viability IC50, IOR/OS9. The class given is cell-based. Particulars: Homo sapiens. Here is the method: as §1, §2
Data set [5] has as its system RD18 rhabdomyosarcoma cells. The data set is described as follows: Cell viability IC50, RD18. The class given is cell-based. The note with it: Homo sapiens, RD18 (RM). Here is the method:
as §1, §2

Data set [6] has as its system TC-71 and RD-ES cell lines. Briefly: Dose-dependent cytotoxicity assay in ES cell lines. It is filed as cell-based, human. Particulars: Homo sapiens; dose-response at 1, 3, 10 and 30 μmol/L in TC-71 and RD-ES. The protocol: as §1
The primary screen was based on a direct binding assay using surface plasmon resonance (SPR) technology with purified extracellular domain of CD99 (CD99-ECD) protein that was immobilized on a neutravidin-coated sensor chip. […] A negative control protein was used in order to eliminate non-specific binders. […] Dose-response studies were performed with 2 compounds at 1, 3, 10 and 30 μmol/L concentration in ES cell lines.

For a further data set, the system named is SK-N-MC ES cells. The data set is described as follows: Cell viability IC50, SK-N-MC. The class given is cell-based. The note with it: Homo sapiens. The protocol:
as §1, §2

The next data set deals with IOR/OS14 OS cells. Briefly: Cell viability IC50, IOR/OS14. The class given is cell-based. Particulars: Homo sapiens. The protocol: as §1, §2
Setting [7] is: 48 h, read-out: average IC50 concentration for leukemia cell lines.
The mark [8] stands for this setting: MOLT-4 and Jurkat, read-out: IC50, leukemia cell lines.

Read-outs that look alike come from different tables or passages of the source.

For orientation: Kd means the concentration at which binding is half-saturated. With `Nc1nc(Cl)nc2c1ncn2[C@H]1C[C@H](O)[C@@H](CO)O1` [cladribine], the IC50 in the data set on TC-71 ES cells (TC-71 (ES), Table 1) is 500 nM; in data set [1], 900 nM; with MG63 OS cells, > 30 µM; in data set [2] (setting [7]), 340 ± 30 nM; in [2] (setting [8]), < 1000 nM; in the data set on IOR/OS20 OS cells it was > 30 µM. In addition, the IC50 is ≥ 20.1 µM in the data set with non-ES cell lines; 660 nM in the data set with RDES ES cells; > 30 µM with IOR/OS9 OS cells; 3670 nM in [5]; < 1000 nM in data set [6]; 680 nM in the data set on SK-N-MC ES cells. Moreover, the IC50 in the data set on IOR/OS14 OS cells was > 30 µM. Also, the “Fold changes in IC50” value with TC-71 ES cells is 1.02 ± 0.27 (n = 5). Further, in the data set on TC-71 xenografts, the event-free survival result is “significantly different”. Also, the tumor growth result with TC-71 xenografts is listed as “grew slower”. The equilibrium dissociation constant (Kd) in data set [3] was 3.8 ± 3.3 µM. Besides, the “formation of CD99 homodimers” value in data set [4] is recorded as “significantly reduced”. Also, for the setting “mouse, in vivo”, the total body weight entry is “does not change”.

As to `Nc1nc(Cl)nc2c1ncn2[C@@H]1O[C@H](CO)[C@@H](O)[C@@H]1F` [clofarabine], the IC50 was 150 nM with TC-71 ES cells (TC-71 (ES), Table 1); 150 nM in the data set with TC-71 ES cells (TC-71 cells, WST-1, 48 h (FIG. 10B)); 200 nM in data set [1]; > 10 µM with MG63 OS cells; 180 ± 10 nM in data set [2] (setting [7]); < 1000 nM in data set [2] (setting [8]). Besides, the IC50 in the data set with IOR/OS20 OS cells was > 10 µM; with non-ES cell lines, ≥ 13.7 µM; in the data set on RDES ES cells, 490 nM; in the data set on IOR/OS9 OS cells it was > 10 µM; in data set [5] it was 970 nM; in data set [6], < 1000 nM. Moreover, the IC50 in the data set with SK-N-MC ES cells was 170 nM; in the data set with IOR/OS14 OS cells, > 10 µM. The “Fold changes in IC50” value in the data set on TC-71 ES cells is listed as 1.10 ± 0.38 (n = 8). Moreover, the event-free survival entry with TC-71 xenografts is “not statistically significant”; in the data set with TC-71 xenografts (listed as Clofarabine), “significantly improved”. Besides, in the data set on TC-71 xenografts, the tumor growth result is “significant inhibition of tumor growth”. The Kd in [3] worked out at 5.3 ± 3.2 µM. The “formation of CD99 homodimers” value in data set [4] is “blocked”. In addition, the tolerability result (TC-71 and SKES xenograft models, clofarabine 30 mg/kg in TC-71) was “early deaths”. Also, where the note is “weighed daily during treatment”, the total body weight result was “does not change”.
